“Also recorded” adds a separate entry of the source. Structures can show the parent of a compound that is named as a salt.
Tests used:
mTORC1 = assay: TSC2 dependence of mTORC1 inhibition and TFEB activation in p53-/- and p53-/-, TSC2-/- MEFs; type: cell-based, mouse; details: p53-/- vs p53-/-
HepG2 cells = assay: Oleic acid-induced lipid accumulation (oil red O staining); details: 1 mM oleic acid; 370 nM DG, 3.3 μM AD and IKA
TFEB = assay: GFP-TFEB nuclear translocation (high-content screen, dose-response, confocal imaging); type: cell-based, human; details: for effect of calcineurin inhibition (FK506, CsA, siPPP3CB) on TFEB activation: 5 μM FK506, 10 μM CsA or siPPP3CB; for effect of Compound C (AMPK inhibitor) and STO-609 (CaMKKβ inhibitor) on induced TFEB nuclear translocation: 10 μM compound C, 25 μM STO-609, 4 hr; for effect of IP3R inhibitor Xestosporin C or siIP3R1 on induced TFEB nuclear translocation: 25 μM Xesto 1 hr pretreatment, time-dependent; for effect of GPN pretreatment (lysosomal Ca2+ depletion) on induced TFEB nuclear translocation: 200 μM GPN, 30 min pretreatment; for hit status in the TFEB screen overlapping with the autophagy (GFP-LC3) screen: compounds added for 4 hr, overlap with top 30 hits of autophagy screen; for effect of RNAi-mediated MCOLN1 depletion on induced TFEB nuclear translocation: siMCOLN1
Description: GFP-TFEB HeLa cells were seeded in 384-well plates. Compounds were added for 4 hr the following day. Bafilomycin A1 (250 nM) treated cells were used as positive controls and DMSO-treated cells as negative controls. […] Images were collected using 405 nm and 488 nm laser lines with DAPI and FITC emission filters. Images were analyzed using the GE IN Cell Analyzer Workstation software. Briefly, nuclei were segmented using the Hoechst channel and the cytoplasm was segmented using the GFP channel. For each cell, the mean GFP intensity in each compartment was measured and used to calculate the nuclear to cytoplasmic (N/C) TFEB-GFP ratio. The same method as mentioned above was used to generate the top 30 compounds with highest condensed activity values and robust Z score values.
GFP-TFEB HeLa cells treated with compounds or DMSO were fixed and stained with Hoechst. Images from at least 3 different fields per sample were acquired using a 40× objective on a Zeiss confocal microscope and analyzed with ImageJ. 20-30 cells were evaluated from each image for each sample, and 3 independent experiments were performed to generate the graphed values.

HeLa cells = assay: Cellular ROS level (CellROX Green); type: cell-based, human; details: 4 hrs
Excerpt: SFIGS. 5A-I. Small-molecule activators of TFEB engage different sources of Ca. (SFIG. 5A) HeLa cells were pretreated with or without N-acetyl-cysteine (NAC) for 1 hr and then treated with tert-butyl hydroperoxide (TBHP) or AD for 4 hrs. TBHP and NAC were used as positive and negative controls. A ROS-sensitive DNA dye CellROX Green was used to detect cellular ROS levels after these treatments. Endogenous TFEB localization was also shown. (SFIG. 5B) Quantification of the fluorescent intensity of CellROX Green in cells treated as in a was done by a plate reader. (SFIG. 5C) Quantification of endogenous TFEB nuclear translocation in SFIG. 5A. (SFIG. 5D) Cells were pretreated with or without 25 μM IP3R inhibitor Xestosporine C (Xesto) for 1 hr and then treated with DG, AD and IKA for indicated time. Quantification of TFEB translocation was shown in SFIG. 5E-G (graphs represent mean±s.d. **p<0.01, ***p<0.001, ****p<0.0001). (SFIG. 5H-I) RNA-interference were used to knock down inositol […] receptor type 1 (IP3R1) in GFP-TFEB cells before they were treated with DG, AD and IKA. siLONRF1 was used as a negative control. TFEB translocation percentage was quantified from images as shown in SFIG. 5I (mean±s.d. for n=3 independent experiments, ****p<0.0001). Scale bar, 20 μm.

C. elegans = C. elegans lifespan analysis; type: in vivo; details: for Lifespan increase (%): vs DMSO
Description: The C. elegans mutant strain, fem-1(hc17ts) IV; dal-1(dt2300), obtained from the Caenorhabditis Genetics Center at the University of Minnesota, was cultured on Nematode Growth Medium (NGM) plates seeded with the E. coli strain OP50 and consistently maintained at 15° C. For lifespan assays, a total of 12 age-synchronized nematode adults were transferred to eight replicate NGM plates and grown at 25° C. to ensure sterility. Age synchronization was achieved through standard hypochlorite treatments. Eggs were placed on NGM plates supplemented with Streptomycin (100 μg ml-1) and seeded with the E. coli strain, OP50. For compound testing, 200 μl of 10 μM Ikarugamycin in 5% DMSO was spotted directly onto OP50 seeded NGM plates. Control plates were prepared by spotting 200 μl of 5% DMSO directly onto OP50 seeded NGM plates. For the first 10 days of adulthood, C. elegans were scored once a day as dead or alive by touch stimulation with a platinum wire. After day 10, animals were scored every other day. Nematodes which crawling off the agar plates were censored from subsequent lifespan analysis. Kaplan-Meier statistical analysis was performed using Prism 7 software. Lifespan experiments were done on two separate occasions.

HLH-30 = assay: HLH-30::GFP nuclear localization assay; type: in vivo, C. elegans; details: dal-1(dt2300); sqIs19 worms, 5 μM IKA
Description: Adult TX1941 dal-1(dt2300); sqIs19 [hlh-30p::hlh-30::GFP rol-6(+)] worms were placed on NGM plates with either a test chemical or 5% DMSO. GFP was scored at various intervals on live worms without mounting using a Zeiss Axio Zoom. V16 fluorescence dissecting microscope equipped with Axiocam 503. No difference was observed between 2 hour and overnight treatment.

[1] = Body weight of normal-diet-fed (lean) mice; type: in vivo, mouse; details: 2.5 mg/kg DG
[2] = tested on: mice under fed and fast conditions; assay: Short-term starvation and chloroquine-induced acute hepatic lipid accumulation in mice; type: in vivo, mouse
Description: SFIGS. […] (SFIG. 6A) The body weight (left y-axis, solid symbols) and food intake (right y-axis, open symbols) measured in normal-diet-fed mice treated with vehicle or 2.5 mg/kg DG. (SFIG. 6B) Drug release curves of AD (upper panel) and IKA (lower panel) in PBS. […] (SFIG. 6F) Cells were treated with various doses DG, AD and IKA for 4 hours, and cell viability was measured immediately or after 72 hours. Dose response curves were simulated using ImageJ. (SFIG. 6G) H&E staining of heart, spleen and kidney sections from mice treated with DG, AD, IKA and their corresponding controls. Scale bar, 100 μm. (SFIG. 6H) H&E staining of liver and heart sections as well as ORO and p62/SQSTM1 IHC staining of liver sections from mice under fed and fast conditions with orally injected DG and intraperitoneally injected CQ, individually and jointly, or their corresponding control (Saline). Scale bar, 50 μm. (SFIG. 6I) The body weight of mice after the treatment described in SFIG. 6H. (SFIGS. 6J-L) Total serum levels of triglyceride, cholesterol and glucose of mice after the treatment described in SFIG. 6G.

Compound	dependence of mTORC1 inhibition / TFEB activation on TSC2 (mTORC1)	oleic acid-induced lipid accumulation in human hepatocytes (HepG2 cells)	reversal of effect on TFEB by cell-permeable pyruvate (TFEB)	effect of calcineurin inhibition (FK506, CsA, siPPP3CB) on TFEB activation (TFEB)	effect of Compound C (AMPK inhibitor) and STO-609 (CaMKKβ inhibitor) on induced TFEB nuclear translocation (TFEB)	effect of IP3R inhibitor Xestosporin C or siIP3R1 on induced TFEB nuclear translocation (TFEB)	effect of GPN pretreatment (lysosomal Ca2+ depletion) on induced TFEB nuclear translocation (TFEB)	effect of RNAi-mediated MCOLN1 depletion on induced TFEB nuclear translocation (TFEB)	other results
CCCCC(CC)CNC(=N)NC(=N)NCCCCCCNC(=N)NC(=N)NCC(CC)CCCC (centres unmarked) [AD, alexidine dihydrochloride]	TSC2-dependent	significantly ameliorated	reversed	block TFEB activation	inhibited	attenuated	sufficient to disrupt TFEB nuclear translocation	suppressed	hit status in the TFEB screen overlapping with the autophagy (GFP-LC3) screen (TFEB; dihydrochloride): top 18 hits; also recorded: top scoring hits; ROS production (HeLa cells): comparable ROS production
CC[C@H]1[C@@H]2C=C[C@@H]3[C@H]4C/C=C\C(=O)NCCC[C@@H]5NC(=O)/C(=C(O)/C=C/[C@@H]4C[C@@H]3[C@H]2C[C@H]1C)C5=O [IKA, ikarugamycin]	TSC2-dependent	–	reversed	calcineurin independent	inhibited	attenuated	almost no effect	–	effect of thapsigargin (ER Ca2+ depletion) on induced TFEB nuclear translocation (TFEB; 300 nM TG, 30 min): selectively decreased; lifespan of fem-1(−);dal-1(−) animals (C. elegans; 5 μM IKA vs DMSO): significantly extended; 75th % (C. elegans; 1st experiment): 16 days; Mean Lifespan ± s.e.m (C. elegans; 1st experiment): 21.8 ± 0.6 days; Median lifespan (C. elegans; 1st experiment): 22 days; Lifespan increase (%) (C. elegans; 1st experiment): 22.2%; Mean Lifespan ± s.e.m (C. elegans; 2nd experiment): 23.0 ± 0.5 days; Median lifespan (C. elegans; 2nd experiment): 24 days; Lifespan increase (%) (C. elegans; 2nd experiment): 22.3%; nuclear accumulation of GFP-tagged HLH30 within intestinal cells in adults (HLH-30): induce nuclear accumulation
C[C@H]1O[C@@H](O[C@H]2[C@@H](O)C[C@H](O[C@H]3[C@@H](O)C[C@H](O[C@H]4CC[C@@]5(C)[C@H](CC[C@@H]6[C@@H]5C[C@@H](O)[C@]5(C)[C@@H](C7=CC(=O)OC7)CC[C@]65O)C4)O[C@@H]3C)O[C@@H]2C)C[C@H](O)[C@@H]1O [DG, digoxin, reference compound]	–	significantly ameliorated	not	–	not	attenuated	sufficient to disrupt TFEB nuclear translocation	suppressed	effect of calcineurin perturbation on TFEB activation (TFEB; compound at EC50): inhibited to some extent; effect of calcineurin perturbation on TFEB activation (TFEB; compound at EC90): resistant; hit status in the TFEB screen overlapping with the autophagy (GFP-LC3) screen (TFEB): top 18 hits; also recorded: top scoring hits; body weight of lean mice [1]: did not alter; p62/SQSTM1 accumulation in liver ([2]; fast, CQ, DG oral): reduction; fast-induced hepatic lipid accumulation ([2]; overnight fast, CQ intraperitoneal, DG oral co-administration): improved
